These results are taken from US8410097B2 (priority 2005, dated 2013).

In one assay the target is CB2 cannabinoid receptor (Mus musculus, UniProt P47936). The assay can be described thus: biochemical. In kind it is binding. To be noted: mouse spleen membranes, read-out: Receptor Affinities Ki (nM) CB2. On the procedure:
Some of the inventive analogs were tested for CB2 receptor binding affinity and for CB1 receptor affinity (to determine selectivity). […] The lower the Ki value the higher the binding affinity.
(§1) The treated membranes were subsequently used in the binding assay described below. Approximately 30 μg of membranes were incubated in silanized 96-well microtiter plate with TME containing 0.1% essentially fatty acid-free bovine serum albumin (BSA), 0.8 nM [^3H] […] Radioactivity was detected using MicroScint 20 scintillation cocktail added directly to the dried filterplates, and the filterplates were counted using a Packard Instruments Top-Count. […] Data collected from three independent experiments performed with duplicate determinations was normalized between 100% and 0% specific binding for [^3H] […] The normalized data was analyzed using a 4-parameter nonlinear logistic equation to yield IC50 values.
Silanized centrifuge tubes were used throughout to minimize receptor loss due to adsorption. The CB2 binding assay was conducted in the same manner as for the CB1 binding assay. The binding affinities (Ki) were also expressed in nanomoles (nM).

Another assay addresses T1, CB1 cannabinoid receptor (Rattus norvegicus, UniProt P20272).
T1 construct: membranes were prepared from rat forebrain membranes; from tissue; host or cells: rat forebrain membranes
The assay can be described thus: biochemical. To be noted: for Ki: rat forebrain membranes; for Selectivity CB1: CB1 over CB2 binding selectivity (ratio of Ki). In kind it is binding. As for the experimental part:
Some of the inventive analogs were tested for CB2 receptor binding affinity and for CB1 receptor affinity (to determine selectivity). […] The lower the Ki value the higher the binding affinity. […]
Membranes, previously frozen at −80° C., were thawed on ice. To the stirred suspension was added three volumes of TME (25 mM Tris-HCl buffer, 5 mM MgCl2 and 1 mM EDTA) at a pH 7.4. The suspension was incubated at 4° C. for 30 min. At the end of the incubation, the membranes were pelleted and washed three times with TME.
as §1

Setting [1] is: Receptor Affinities Ki (nM) CB1, Table 10.

Like-named read-outs stand apart in the source and are kept apart here.

T1 sequence (P20272 whole entry): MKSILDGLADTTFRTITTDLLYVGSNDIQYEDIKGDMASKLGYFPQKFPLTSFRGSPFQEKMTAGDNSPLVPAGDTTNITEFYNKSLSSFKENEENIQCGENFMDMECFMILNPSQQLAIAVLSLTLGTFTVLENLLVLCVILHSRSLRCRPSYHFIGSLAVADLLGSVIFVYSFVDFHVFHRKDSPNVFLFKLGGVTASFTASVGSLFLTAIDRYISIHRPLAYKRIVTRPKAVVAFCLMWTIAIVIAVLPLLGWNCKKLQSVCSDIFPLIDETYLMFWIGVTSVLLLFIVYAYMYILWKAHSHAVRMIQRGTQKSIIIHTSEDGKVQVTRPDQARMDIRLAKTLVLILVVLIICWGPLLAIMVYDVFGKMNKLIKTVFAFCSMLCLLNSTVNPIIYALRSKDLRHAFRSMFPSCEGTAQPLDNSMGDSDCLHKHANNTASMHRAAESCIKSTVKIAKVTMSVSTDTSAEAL
CB2 cannabinoid receptor, sequence (P47936 whole entry): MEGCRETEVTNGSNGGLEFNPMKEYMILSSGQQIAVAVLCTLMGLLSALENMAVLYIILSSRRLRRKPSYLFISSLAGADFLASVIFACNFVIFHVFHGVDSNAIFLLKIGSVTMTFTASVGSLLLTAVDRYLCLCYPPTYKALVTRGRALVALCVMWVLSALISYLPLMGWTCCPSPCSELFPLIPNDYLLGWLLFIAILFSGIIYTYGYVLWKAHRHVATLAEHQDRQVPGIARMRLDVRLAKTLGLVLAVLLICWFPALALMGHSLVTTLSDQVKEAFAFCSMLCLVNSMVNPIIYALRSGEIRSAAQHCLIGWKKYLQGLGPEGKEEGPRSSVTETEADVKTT

Take `Cc1c(C(=O)N(C)C2CCCCC2)nc(-c2ccc(Cl)cc2Cl)n1-c1ccc(CCCO)cc1` [Compound 4-7]: the Ki on CB2 cannabinoid receptor (Table 9) was 290 nM; on CB1 cannabinoid receptor (Receptor Affinities Ki (nM) CB1, Table 9), 100 nM. Moreover, the “Selectivity CB1” value on CB1 cannabinoid receptor (Table 9) worked out at 3.
For `Cc1c(C(=O)NN2CCCCC2)nn(-c2ccc(Cl)cc2Cl)c1-c1ccc(C#CCN(C)C)cc1` [Compound 5-1], the Ki was 76 nM on CB2 cannabinoid receptor (Table 10) and 51 nM at CB1 cannabinoid receptor (setting [1]). Also, the “Selectivity CB1” value at CB1 cannabinoid receptor (Table 10) was 1.5.
For the compound `Cc1c(C(=O)NN2CCCCC2)nn(-c2ccc(Cl)cc2Cl)c1-c1ccc(C#CCNC(=O)OC(C)(C)C)cc1` [Compound 5-2], the inhibitory constant (Ki) on CB2 cannabinoid receptor (Table 10) came to 88 nM; at CB1 cannabinoid receptor (setting [1]), 68 nM. The “Selectivity CB1” value on CB1 cannabinoid receptor (Table 10) is reported as 1.3.
As to `Cc1c(C(=O)NN2CCCCC2)nn(-c2ccc(Cl)cc2Cl)c1-c1ccc(C#CCN(C)C)cc1.Cl` [Compound 5-3], the inhibition constant (Ki) at CB2 cannabinoid receptor (Table 10) was 66 nM; at CB1 cannabinoid receptor (setting [1]), 30 nM. Also, the “Selectivity CB1” value at CB1 cannabinoid receptor (Table 10) worked out at 2.2.
Taken in the same sequence, the figures for `Cc1c(C(=O)NN2CCCCC2)nn(-c2ccc(Cl)cc2Cl)c1-c1ccc(C#CCN)cc1` [Compound 5-4] were 40 nM, 21 nM and 2.
Turning to `Cc1c(C(=O)NN2CCCCC2)nn(-c2ccc(Cl)cc2Cl)c1-c1ccc(C#CCN)cc1.Cl` [Compound 5-5], the Ki on CB2 cannabinoid receptor (Table 10) and at CB1 cannabinoid receptor (setting [1]) was 30 nM in each case. For the same compound, the “Selectivity CB1” value at CB1 cannabinoid receptor (Table 10) was determined as 1.
Take `Cc1c(C(=O)NN2CCCCC2)nn(-c2ccc(Cl)cc2Cl)c1-c1ccc(C#CC2CC2)cc1` [Compound 5-6]: the results for the Ki at CB2 cannabinoid receptor (Table 10) and at CB1 cannabinoid receptor (setting [1]) were 20 nM and 12 nM, respectively. Also, the “Selectivity CB1” value on CB1 cannabinoid receptor (Table 10) was determined as 1.5.
As to `Cc1c(C(=O)NN2CCCCC2)nn(-c2ccc(Cl)cc2Cl)c1-c1ccc(C#CC2(O)CCCCC2)cc1` [Compound 5-7], the Ki on CB2 cannabinoid receptor (Table 10) was determined as 68 nM; at CB1 cannabinoid receptor (setting [1]), 20 nM. Moreover, at CB1 cannabinoid receptor (Table 10), the “Selectivity CB1” value came out at 3.5.
Taken in the same sequence, the figures for `Cc1c(C(=O)NN2CCCCC2)nn(-c2ccc(Cl)cc2Cl)c1-c1ccc(C#CC2(O)CCCC2)cc1` [Compound 5-8] were 13 nM, 9 nM and 1.5.
Taken in the same sequence, the figures for `Cc1c(C(=O)NN2CCCCC2)nn(-c2ccc(Cl)cc2Cl)c1-c1ccc(C#Cc2ccccn2)cc1` [Compound 5-9] were 59 nM, 50 nM and 1.
Taken in the same sequence, the figures for `Cc1c(C(=O)NN2CCCCC2)nn(-c2ccc(Cl)cc2Cl)c1-c1ccc(C#Cc2cccnc2)cc1` [Compound 5-10] were 54 nM, 15 nM and 3.6.
In the case of `Cc1c(C(=O)NN2CCCCC2)nn(-c2ccc(Cl)cc2Cl)c1-c1ccc(C#CC(C)(C)C)cc1` [Compound 5-11], the Ki at CB2 cannabinoid receptor (Table 10) and on CB1 cannabinoid receptor (setting [1]) was 25 nM each time. Moreover, on CB1 cannabinoid receptor (Table 10), the “Selectivity CB1” value is on record as 1.
Regarding `Cc1c(C(=O)NN2CCCCC2)nn(-c2ccc(Cl)cc2Cl)c1-c1ccc(C#Cc2ccncc2)cc1` [Compound 5-12], the figures for the Ki at CB2 cannabinoid receptor (Table 10) and at CB1 cannabinoid receptor (setting [1]) were 421 nM and 8 nM, respectively. Further, the “Selectivity CB1” value at CB1 cannabinoid receptor (Table 10) amounted to 52.
On to `Cc1c(C(=O)NN2CCCCC2)nn(-c2ccc(Cl)cc2Cl)c1-c1ccc(C#CCCN)cc1` [Compound 5-13], for which the Ki at CB2 cannabinoid receptor (Table 10) was determined as 732 nM; on CB1 cannabinoid receptor (setting [1]) it was 20 nM. At CB1 cannabinoid receptor (Table 10), the “Selectivity CB1” value turned out to be 36.
For the compound `Cc1c(C(=O)NN2CCCCC2)nn(-c2ccc(Cl)cc2Cl)c1-c1ccc(C#CCCCN)cc1` [Compound 5-14], the inhibition constant (Ki) at CB2 cannabinoid receptor (Table 10) was 947 nM; at CB1 cannabinoid receptor (setting [1]) it was 46 nM. Further, at CB1 cannabinoid receptor (Table 10), the “Selectivity CB1” value came to 20.
Regarding `Cc1c(C(=O)NN2CCCCC2)nn(-c2ccc(Cl)cc2Cl)c1-c1ccc(C#CCCCCN)cc1` [Compound 5-15], the inhibition constant Ki on CB2 cannabinoid receptor (Table 10) stood at 1530 nM; at CB1 cannabinoid receptor (setting [1]) it was 87 nM. For the same compound, on CB1 cannabinoid receptor (Table 10), the “Selectivity CB1” value was 17.
